The values that follow come from US20240408064A1, “RAS INHIBITORS, COMPOSITIONS AND METHODS OF USE THEREOF” (GENETOLEAD INC., priority 2021, published 2024).

For assay [1], the target named is T1, HRas^G12V (Homo sapiens (Human), UniProt P01112, G12V). Description: 19F DLB (ligand-observed 19F NMR) score. It counts as binding. Details: scale not given here. An outline of the steps: (§1)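 In the T2-CPMG experiment, echo spacing was 1 ms and total delays ranged over eight values from 1 to 800 ms. Both scores come from 600 MHz NMR of 50 μM HRas G12V mixed with fragment pools at 240 μM each, in phosphate buffer pH 7.4 with NaCl, MgCl2 and TCEP-d16. Ligand-observed 19F spectra were recorded with 1H decoupling, 64 scans and a 5 s relaxation delay.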
T1 sequence (P01112 1-166 G12V): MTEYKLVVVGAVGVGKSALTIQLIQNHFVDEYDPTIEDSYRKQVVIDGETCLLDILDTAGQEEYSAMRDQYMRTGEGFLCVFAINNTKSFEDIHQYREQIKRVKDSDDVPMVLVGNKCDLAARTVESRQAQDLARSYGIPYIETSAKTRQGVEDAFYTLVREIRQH

In assay [2] the target is T1, HRas^G12V. As to the kind of experiment: 19F T2-CPMG NMR score. It counts as binding. An outline of the steps:
as §1

For assay [3], the target named is T1, HRas^G12V. Description: Overall binding/activity in the various assays (NMR consensus binding). Here is the method:
Since the fragment library was curated using phosphate buffer, 25 mM sodium phosphate pH 7.4, 150 mM NaCl, 5 mM MgCl2, 1 mM TCEP-d16, 10% D2O Fresh TCEP was used for experiments. Screening was performed using ^1H-decoupled 1D ^19F experiment Bruker experiment (zgfhigqn.2) with 64 scans and a relaxation delay of 5 seconds. 50 μM HRas^G12V and 240 μM of each fragment in pools (mixtures) were used.
Hit confirmation was performed using the same ^19F experiment as the screen. Ligand-observed 1D ^1H, protein-observed 1D ^1H, ^1H T2-CPMG as well as Saturation Transfer Difference (STD) experiments were also run on the same samples. Ligand-observed 1D ^1H was run using the standard Bruker sequence with excitation sculpting (zgesgp) with a relaxation delay of 10 seconds and 16 scans per spectrum. Protein-observed 1D ^1H was performed using the same sequence with a relaxation delay of 1 second and 256 scans in order to increase the signal-to-noise of the protein resonances, while keeping the experimental time relatively short. The ^1H T2-CPMG experiment employed a modified version of the Bruker 1D ^1H zgesgp experiment with the addition of a CPMG pulse train after the first 90° excitation pulse. Total duration for each spin echo was fixed at 1 ms (τ=500 μs), while the number of echoes in the pulse train was varied according to the total time (T). The number of scans for each spectrum was 4 and eight delay times were run on each sample, ranging from 1 ms to 800 ms.
STD experiments consisted of two independent spectra with offsets of 0 ppm (on resonance) and −20 ppm (off resonance). […] 160 scans were acquired for each spectrum.
The results obtained with the compounds in the various assays described above are depicted in Table 21.
Because of its power to probe the intrinsically weak interactions (Kd) between targets and low-molecular weight fragments, NMR fragment-based lead discovery (FBLD) is a very useful biophysical method in early stage drug discovery, especially for challenging target proteins; including those with shallow binding pockets. Since FBLD screens are performed using low-molecular weight compounds (fragments) with lower structural complexity, the same chemical space can be covered using a smaller number of drug-like fragments versus use of large libraries of higher-molecular weight lead-like compounds as in high throughput screening (HTS) campaigns. Therefore, FBLD has a much higher hit rate than HTS using only several hundred to several thousand compounds in comparison with approximately 1 million compounds for HTS. Also, the small size of the compounds screened in FBLD means a better chance to fully match the interactions with small or transient pockets within the target protein, where these less tractable pockets cannot be accessed with standard classical HTS methods. […] We expect this methodology to be more advantageous than classical HTS methods for expediting the time from hit to lead (H2L) and allows for rapid access to high quality leads with lower attrition rates in subsequent lead optimization (LO) campaigns toward pre-clinical candidate selection. FBLD screening by NMR involves a “consensus binding” approach where several distinct NMR experiments (DLB, STD, CPMG) are applied along with a free-state aggregation detection method (T2-CPMG) to rank the compounds for their affinity to the receptor (HRAS in this case) whilst simultaneously monitoring the solution behavior and critical quality attributes of each compound. The latter helps to eliminate artifact binders which are highly problematic. We performed a fluorine screen involving 461 compounds that were derived from a highly curated fragment library. Moreover, two-dimensional ^15N HSQC NMR was also used to validate ligand-binding sites on the target protein. In addition, we employed protein-detected biophysical measurements were employed to determine fragment binding affinities to the target protein (Kd) by HSQC NMR. […]

With `CCOC(=O)C[C@H]1CN(C(=O)Cc2c[nH]c3cc(F)ccc23)CCO1` [Compound 10177, Ethyl (S)-2-(4-(2-(6-fluoro-1H-indol-3-yl)acetyl)morpholin-2-yl)acetate], the “19F DLB Score” value on HRas^G12V [1] was determined as 1.12. For the same molecule, the “19F T2-CPMG Score” value at HRas^G12V [2] was determined as 7.14. Also, the “Binding to HRas^G12V (in words)” value on HRas^G12V [3] is reported as “low or no binding”.
As to `CN1CCC(NC(=O)Cc2c[nH]c3cc(F)ccc23)C(C(=O)O)C1` (stereo not drawn) [Compound 10119, 4-(2-(6-fluoro-1H-indol-3-yl)acetamido)-1-methylpiperidine-3-carboxylic acid], the “19F DLB Score” value at HRas^G12V [1] amounted to 0.87. In addition, the “19F T2-CPMG Score” value at HRas^G12V [2] is −0.46. On HRas^G12V [3], the “Binding to HRas^G12V (in words)” value was “low or no binding”.
For `CN1CCN(C(=O)Cc2c[nH]c3cc(F)ccc23)[C@H](C(=O)O)C1` [Compound 10158], the “19F DLB Score” value at HRas^G12V [1] is recorded as 0.93. Also, at HRas^G12V [2], the “19F T2-CPMG Score” value worked out at 2.14. For the same molecule, the “Binding to HRas^G12V (in words)” value on HRas^G12V [3] is given as “low or no binding”.
On the same counts, the results for `Cn1cc(CC(=O)N2CCC2)c2ccc(F)cc21` [Compound 10024, 1-(azetidin-1-yl)-2-(6-fluoro-1-methyl-1H-indol-3-yl) ethan-1-one] are 1.06, 0.01 and “low or no binding”.
On to `O=C(Cc1c[nH]c2cc(F)ccc12)N[C@@H]1CCOC1` [Compound 10071], for which the “19F DLB Score” value at HRas^G12V [1] amounted to 1.35. Besides, at HRas^G12V [2], the “19F T2-CPMG Score” value was found to be 4.49. Further, the “Binding to HRas^G12V (in words)” value at HRas^G12V [3] is “low or no binding”.
On the same counts, the results for `CC(C)(CNC(=O)Cc1c[nH]c2cc(F)ccc12)C(=O)O` [Compound 10062] are 1.07, 1.59 and “low or no binding”.
The corresponding values for `O=C(NCCc1c[nH]c2cc(F)ccc12)C1CCOC1` (stereo not drawn) [Compound 10063] are 1.1, 2.82 and “low or no binding”.
On to `O=C(Cc1c[nH]c2cc(F)ccc12)NCCN1CCOCC1` [Compound 10015], for which the “19F DLB Score” value on HRas^G12V [1] was 1.57. At HRas^G12V [2], the “19F T2-CPMG Score” value amounted to 7.79. Further, the “Binding to HRas^G12V (in words)” value on HRas^G12V [3] was “low or no binding”.
On the same counts, the results for `O=C(O)[C@@H]1CN(C(=O)Cc2c[nH]c3cc(F)ccc23)CCO1` [Compound 10151] are 1.29, 3.24 and “low or no binding”.
The corresponding values for `CC(=O)N1CCC[C@H]1C(=O)NCCc1c[nH]c2cc(F)ccc12` [Compound 10045] are 1.1, 1.13 and “low or no binding”.
The corresponding values for `CC(=O)N1CCC[C@@H]1C(=O)NCCc1c[nH]c2cc(F)ccc12` [Compound 10044] are 1.07, 0.95 and “low or no binding”.
For the molecule `CCOC(=O)C(CC(N)=O)NC(=O)Cc1c[nH]c2cc(F)ccc12` (stereo not drawn) [Compound 10101], on HRas^G12V [1], the “19F DLB Score” value is 1.12. Moreover, on HRas^G12V [2], the “19F T2-CPMG Score” value is on record as 1.74. For the same molecule, the “Binding to HRas^G12V (in words)” value on HRas^G12V [3] is reported as “low or no binding”.
As for `CCOC(=O)C(C#N)c1c[nH]c2cc(F)ccc12` (stereo not drawn) [Compound 11016], the “19F DLB Score” value on HRas^G12V [1] is given as 1.74. The “19F T2-CPMG Score” value on HRas^G12V [2] stood at 5.57. Besides, the “Binding to HRas^G12V (in words)” value at HRas^G12V [3] is “low or no binding”.
The corresponding values for `Cc1[nH]c2cc(F)ccc2c1CC(=O)N1CCC1` [Compound 10077, 1-(azetidin-1-yl)-2-(6-fluoro-2-methyl-1H-indol-3-yl)ethan-1-one] are 0.96, 0.41 and “low or no binding”.
The corresponding values for `CC1(C)OC(=O)C(C(c2ccccc2F)c2c[nH]c3cc(F)ccc23)C(=O)O1` (stereo not drawn) [Compound 11041] are 1.65, 3.61 and “low or no binding”.
